Results taken from ChEMBL document CHEMBL2413072, “Synthesis and in vitro anticancer studies of novel C-2 arylidene congeners of lantadenes” (2013).

How the values were obtained:
Format in all cases: functional
NCI-H460 [1] = assay: Growth inhibition of human NCI-H460 cells assessed as cell growth at 10^-8 M by sulforhodamine B assay; conditions: read-out: Activity
SN12C = assay: Growth inhibition of human SN12C cells by sulforhodamine B assay
NCI-H322M [2] = assay: Growth inhibition of human NCI-H322M cells assessed as cell growth at 10^-4 M by sulforhodamine B assay; conditions: read-out: Activity
MCF7 [3] = assay: Growth inhibition of human MCF7 cells assessed as cell growth at 10^-6 M by sulforhodamine B assay; conditions: read-out: Activity
RXF 393 [4] = assay: Growth inhibition of human RXF393 cells assessed as cell growth at 10^-8 M by sulforhodamine B assay; conditions: read-out: Activity
UO-31 = assay: Growth inhibition of human UO31 cells assessed as cell growth at 10^-4 M by sulforhodamine B assay; conditions: read-out: Activity
[5] = Growth inhibition of human HCC2998 cells assessed as cell growth at 10^-4 M by sulforhodamine B assay; conditions: HCC 2998, read-out: Activity
SK-MEL-5 = assay: Growth inhibition of human SK-MEL-5 cells assessed as cell growth at 10^-7 M by sulforhodamine B assay; conditions: read-out: Activity
IGROV-1 = assay: Growth inhibition of human IGROV1 cells assessed as cell growth at 10^-7 M by sulforhodamine B assay; conditions: read-out: Activity
SNB-19 = assay: Growth inhibition of human SNB19 cells assessed as cell growth at 10^-8 M by sulforhodamine B assay; conditions: read-out: Activity
SK-OV-3 [6] = assay: Growth inhibition of human SKOV3 cells assessed as cell growth at 10^-8 M by sulforhodamine B assay; conditions: read-out: Activity
SF-268 = assay: Growth inhibition of human SF268 cells assessed as cell growth at 10^-6 M by sulforhodamine B assay; conditions: read-out: Activity
HCT-116 = assay: Growth inhibition of human HCT116 cells assessed as cell growth at 10^-7 M by sulforhodamine B assay; conditions: read-out: Activity
SF-295 = assay: Growth inhibition of human SF295 cells assessed as cell growth at 10^-7 M by sulforhodamine B assay; conditions: read-out: Activity
HL-60(TB) = assay: Growth inhibition of human HL-60(TB) cells assessed as cell growth at 10^-8 M by sulforhodamine B assay; conditions: read-out: Activity
RPMI-8226 = assay: Growth inhibition of human RPMI8226 cells by sulforhodamine B assay
M14 = assay: Growth inhibition of human M14 cells assessed as cell growth at 10^-7 M by sulforhodamine B assay; conditions: read-out: Activity
UACC-257 = assay: Growth inhibition of human UACC257 cells assessed as cell growth at 10^-6 M by sulforhodamine B assay; conditions: read-out: Activity
OVCAR-4 [7] = assay: Growth inhibition of human OVCAR4 cells by sulforhodamine B assay
T47D [8] = assay: Growth inhibition of human T47D cells assessed as cell growth at 10^-7 M by sulforhodamine B assay; conditions: read-out: Activity
DU-145 = assay: Growth inhibition of human DU145 cells assessed as cell growth at 10^-8 M by sulforhodamine B assay; conditions: read-out: Activity
PC-3 = assay: Growth inhibition of human PC3 cells assessed as cell growth at 10^-8 M by sulforhodamine B assay; conditions: read-out: Activity
HOP-62 = assay: Growth inhibition of human HOP62 cells by sulforhodamine B assay
MCF7 [9] = assay: Growth inhibition of human MCF7 cells assessed as cell growth at 10^-8 M by sulforhodamine B assay; conditions: read-out: Activity
MOLT-4 [10] = assay: Growth inhibition of human MOLT4 cells assessed as cell growth at 10^-4 M by sulforhodamine B assay; conditions: read-out: Activity
CCRF-CEM = assay: Growth inhibition of human CCRF-CEM cells assessed as cell growth at 10^-4 M by sulforhodamine B assay; conditions: read-out: Activity
HT-29 = assay: Growth inhibition of human HT-29 cells assessed as cell growth at 10^-8 M by sulforhodamine B assay; conditions: read-out: Activity
SK-OV-3 [11] = assay: Growth inhibition of human SKOV3 cells assessed as cell growth at 10^-6 M by sulforhodamine B assay; conditions: read-out: Activity
HCT-15 = assay: Growth inhibition of human HCT15 cells assessed as cell growth at 10^-4 M by sulforhodamine B assay; conditions: read-out: Activity
MOLT-4 [12] = assay: Growth inhibition of human MOLT4 cells by sulforhodamine B assay
[13] = Growth inhibition of human HCC2998 cells by sulforhodamine B assay
SW-620 = assay: Growth inhibition of human SW620 cells assessed as cell growth at 10^-4 M by sulforhodamine B assay; conditions: read-out: Activity
T47D [14] = assay: Growth inhibition of human T47D cells assessed as cell growth at 10^-8 M by sulforhodamine B assay; conditions: read-out: Activity
HOP-92 = assay: Growth inhibition of human HOP92 cells assessed as cell growth at 10^-4 M by sulforhodamine B assay; conditions: read-out: Activity
U-251 = assay: Growth inhibition of human U251 cells assessed as cell growth at 10^-6 M by sulforhodamine B assay; conditions: read-out: Activity
A498 = assay: Growth inhibition of human A498 cells assessed as cell growth at 10^-6 M by sulforhodamine B assay; conditions: read-out: Activity
TK-10 = assay: Growth inhibition of human TK10 cells assessed as cell growth at 10^-4 M by sulforhodamine B assay; conditions: read-out: Activity
K562 = assay: Growth inhibition of human K562 cells assessed as cell growth at 10^-7 M by sulforhodamine B assay; conditions: read-out: Activity
NCI-H460 [15] = assay: Growth inhibition of human NCI-H460 cells assessed as cell growth at 10^-6 M by sulforhodamine B assay; conditions: read-out: Activity
NCI-H322M [16] = assay: Growth inhibition of human NCI-H322M cells assessed as cell growth at 10^-6 M by sulforhodamine B assay; conditions: read-out: Activity
RXF 393 [17] = assay: Growth inhibition of human RXF393 cells assessed as cell growth at 10^-4 M by sulforhodamine B assay; conditions: read-out: Activity
OVCAR-4 [18] = assay: Growth inhibition of human OVCAR4 cells assessed as cell growth at 10^-6 M by sulforhodamine B assay; conditions: read-out: Activity
[19] = read-out: LC50 (the source's name)
[20] = read-out: pLC50 (the source's name) (converted)

C/C=C(/C)C(=O)O[C@@H]1CC(C)(C)C[C@H]2C3=CC[C@@H]4[C@@]5(C)CCC(=O)C(C)(C)[C@@H]5CC[C@@]4(C)[C@]3(C)CC[C@@]12C(=O)O [LANTADENE A]
growth at 0.01 µM (NCI-H460 [1]): 104%
GI50 (SN12C; read-out: GI50): 3.47 µM
CC50 (SN12C; [19]): > 100 µM
TGI (SN12C; read-out: TGI): > 100 µM
GI50 (SN12C; read-out: pGI50 (converted)): 3.47 µM
CC50 (SN12C; [20]): > 100 µM
TGI (SN12C; read-out: pTGI (converted)): > 100 µM
growth at 100 µM (NCI-H322M [2]): 17%
growth at 1 µM (MCF7 [3]): 87%
growth at 0.01 µM (RXF 393 [4]): 95%
growth at 100 µM (UO-31): 6%
growth at 100 µM [5]: 2%
growth at 0.1 µM (SK-MEL-5): 83%
growth at 0.1 µM (IGROV-1): 111%
growth at 0.01 µM (SNB-19): 93%
growth at 0.01 µM (SK-OV-3 [6]): 103%
growth at 1 µM (SF-268): 98%
growth at 0.1 µM (HCT-116): 90%
growth at 0.1 µM (SF-295): 88%
growth at 0.01 µM (HL-60(TB)): 100%
GI50 (RPMI-8226; read-out: GI50): 2 µM
CC50 (RPMI-8226; [19]): > 100 µM
TGI (RPMI-8226; read-out: TGI): > 100 µM
GI50 (RPMI-8226; read-out: pGI50 (converted)): 2 µM
CC50 (RPMI-8226; [20]): > 100 µM
TGI (RPMI-8226; read-out: pTGI (converted)): > 100 µM
growth at 0.1 µM (M14): 91%
growth at 1 µM (UACC-257): 91%
GI50 (OVCAR-4 [7]; read-out: GI50): 5.64 µM
CC50 (OVCAR-4 [7]; [19]): > 100 µM
TGI (OVCAR-4 [7]; read-out: TGI): > 100 µM
GI50 (OVCAR-4 [7]; read-out: pGI50 (converted)): 5.62 µM
CC50 (OVCAR-4 [7]; [20]): > 100 µM
TGI (OVCAR-4 [7]; read-out: pTGI (converted)): > 100 µM
growth at 0.1 µM (T47D [8]): 99%
growth at 0.01 µM (DU-145): 104%
growth at 0.01 µM (PC-3): 93%
GI50 (HOP-62; read-out: GI50): 20.6 µM
LC50 (concentration killing 50% of cells) (HOP-62; read-out: LC50): > 100 µM
TGI (HOP-62; read-out: TGI): > 100 µM
GI50 (HOP-62; read-out: pGI50 (converted)): 20.4 µM
LC50 (concentration killing 50% of cells) (HOP-62; read-out: pLC50 (converted)): > 100 µM
TGI (HOP-62; read-out: pTGI (converted)): > 100 µM
growth at 0.01 µM (MCF7 [9]): 94%
growth at 100 µM (MOLT-4 [10]): 2%
growth at 100 µM (CCRF-CEM): 9%
growth at 0.01 µM (HT-29): 99%
growth at 1 µM (SK-OV-3 [11]): 103%
growth at 100 µM (HCT-15): 9%
GI50 (MOLT-4 [12]; read-out: GI50): 3.34 µM
CC50 (MOLT-4 [12]; [19]): > 100 µM
TGI (MOLT-4 [12]; read-out: TGI): > 100 µM
GI50 (MOLT-4 [12]; read-out: pGI50 (converted)): 3.31 µM
CC50 (MOLT-4 [12]; [20]): > 100 µM
TGI (MOLT-4 [12]; read-out: pTGI (converted)): > 100 µM
GI50 ([13]; HCC 2998, read-out: GI50): 3.33 µM
CC50 ([13]; HCC 2998, read-out: LC50 (the source's name)): > 100 µM
TGI ([13]; HCC 2998, read-out: TGI): > 100 µM
GI50 ([13]; HCC 2998, read-out: pGI50 (converted)): 3.31 µM
CC50 ([13]; HCC 2998, read-out: pLC50 (the source's name) (converted)): > 100 µM
TGI ([13]; HCC 2998, read-out: pTGI (converted)): > 100 µM
growth at 100 µM (SW-620): 22%
growth at 0.01 µM (T47D [14]): 99%
growth at 100 µM (HOP-92): -35%
growth at 1 µM (U-251): 90%
growth at 1 µM (A498): 72%
growth at 100 µM (TK-10): 6%
growth at 0.1 µM (K562): 100%
growth at 1 µM (NCI-H460 [15]): 92%
growth at 1 µM (NCI-H322M [16]): 90%
growth at 100 µM (RXF 393 [17]): -15%
growth at 1 µM (OVCAR-4 [18]): 86%
